{
  "source": "patent US20020137929A1",
  "about": "“1 - (3-heterocyclylphenyl) isothiourea, -isourea, -guanidine and -amidine herbicidal agents” (Intellectual Property Department, BASF Aktiengesellschaft, priority 1998, published 2002)",
  "key": {"[1]": {"tested_on": "AMBEL (Ragweed, Common)", "experiment": "Postemergence herbicidal evaluation", "assay_type": "in vivo, Ambrosia artemisifolia", "details": "postemergence", "method_in_brief": "(§1)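 Rate range approx. 0.0156–0.500 kg/ha. Foliar application at 40 psi to ~2-week seedlings; surfactant 0.5% TWEEN 20 in 50/50 acetone/water. Evaluation 4–5 wk post-treatment by 0–9 visual injury score, means of replicate tests.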"}, "[2]": {"tested_on": "SAGPY (Arrowhead (Pygmaea))", "experiment": "Postemergence weed control under flooded paddy conditions", "assay_type": "in vivo, Sagittaria pygmaea", "details": "postemergence weeds, 3-4 weeks after treatment", "method_in_brief": "(§2)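 Weeds 3 to 5 cm tall and rice seedlings at the 1.5 to 2.5 leaf stage were flooded, with water held 1.5 to 3 cm above the soil. Compounds in 50/50 v/v aqueous/acetone went into the flood water at about 0.0313 to 0.500 kg/ha. Visual 0-9 ratings versus control were made 3 to 4 weeks later.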"}, "[3]": {"tested_on": "CHEAL (Lambsquarters, Common)", "experiment": "Preemergence herbicidal evaluation", "assay_type": "in vivo, Chenopodium album", "details": "rated 4-5 weeks after treatment", "method_in_brief": "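Preemergence soil application of compound, sprayed in aqueous acetone at rates equivalent to about 0.0156 to 0.500 kg per hectare onto freshly sown cups. Plant response was judged by eye on a 0-9 scale four to five weeks later.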"}, "[4]": {"tested_on": "IPOSS (Morningglory Spp.)", "experiment": "Preemergence herbicidal evaluation", "assay_type": "in vivo, Ipomoea Spp.", "details": "rated 4-5 weeks after treatment", "excerpt": "(§3) Results of herbicide evaluation are expressed on a rating scale (0-9). The scale is based upon a visual observation of plant stand, vigor, malformation, size, chlorosis and overall plant appearance as compared with a control.\nThe preemergence herbicidal activity of the test compounds of the present invention is exemplified by the following tests in which the seeds of a variety of monocotyledonous and dicotyledonous plants are separately mixed with potting soil and planted on top of approximately one inch of soil in separate pint cups. After planting, the cups are sprayed with the selected aqueous acetone solution containing test compound in sufficient quantity to provide the equivalent of about 0.0156 to 0.500 kg per hectare of test compound per cup. The treated cups are then placed on greenhouse benches, watered and cared for in accordance with conventional greenhouse procedures. From four to five weeks after treatment, the tests are terminated and each cup is examined and rated according to the rating system provided in Example 37.\nThe compounds evaluated are reported by compound number given in Example 37."}, "[5]": {"tested_on": "IPOSS (Morningglory Spp.)", "experiment": "Postemergence herbicidal evaluation", "assay_type": "in vivo, Ipomoea Spp.", "protocol": "In the tests, seedling plants are grown in jiffy flats for about two weeks. The test compounds are dispersed in 50/50 acetone/water mixtures containing 0.5% TWEEN®20, a polyoxyethylene sorbitan monolaurate surfactant of Atlas Chemical Industries, in sufficient quantities to provide the equivalent of about 0.0156 kg to 0.500 kg per hectare of active compound when applied to the plants through a spray nozzle operating at 40 psi for a predetermined time. After spraying, the plants are placed on greenhouse benches and are cared for in accordance with conventional greenhouse procedures. From four to five weeks after treatment, the seedling plants are examined and rated according to the rating system set forth below. Where more than one test is involved for a given compound, the data are averaged.\nPlant species employed in these evaluations are reported by header abbreviation, common name and scientific name.\nas §3"}, "[6]": {"tested_on": "TRZAWR (Wheat, Winter, cv Riband)", "experiment": "Postemergence herbicidal evaluation", "assay_type": "in vivo, Triticum aestivum", "details": "postemergence", "method_in_brief": "as §1"}, "[7]": {"tested_on": "MOOVA (Monochoria)", "experiment": "Postemergence weed control under flooded paddy conditions", "assay_type": "in vivo, Monochoria vaginalis", "details": "postemergence weeds, 3-4 weeks after treatment", "method_in_brief": "as §2"}, "[8]": {"tested_on": "GALAP (Galium)", "experiment": "Postemergence herbicidal evaluation", "assay_type": "in vivo, Galium aparine", "details": "postemergence", "method_in_brief": "as §1"}},
  "data": [
    {"smiles": "CN1C(=O)CSC1=Nc1cc(N2C(=O)C3=C(CCCC3)C2=O)c(F)cc1Cl", "note": "[Compound 1, N-{4-chloro-2-fluoro-5-[(3-methyl-4-oxo-2-thiazolidinylidene)amino]phenyl}-1-cyclohexene-1,2-dicarboximide]", "values": [
      {"measurement": "AMBEL herbicidal rating", "setting": "[1]; rate 0.0157 kg/ha", "result": 2.0},
      {"measurement": "AMBEL herbicidal rating", "setting": "[1]; rate 0.0313 kg/ha", "result": 3.0},
      {"measurement": "AMBEL herbicidal rating", "setting": "[1]; rate 0.0625 kg/ha", "result": 3.0},
      {"measurement": "AMBEL herbicidal rating", "setting": "[1]; rate 0.1250 kg/ha", "result": 5.0},
      {"measurement": "AMBEL herbicidal rating", "setting": "[1]; rate 0.2500 kg/ha", "result": 7.0},
      {"measurement": "AMBEL herbicidal rating", "setting": "[1]; rate 0.5000 kg/ha", "result": 8.0},
      {"measurement": "Herbicidal rating SAGPY", "setting": "[2]; rate 0.0313 kg/ha", "result": 0.0},
      {"measurement": "Herbicidal rating SAGPY", "setting": "[2]; rate 0.0625 kg/ha", "result": 0.0},
      {"measurement": "Herbicidal rating SAGPY", "setting": "[2]; rate 0.1250 kg/ha", "result": 0.0},
      {"measurement": "Herbicidal rating SAGPY", "setting": "[2]; rate 0.2500 kg/ha", "result": 0.0},
      {"measurement": "Herbicidal rating SAGPY", "setting": "[2]; rate 0.5000 kg/ha", "result": 0.0},
      {"measurement": "CHEAL preemergence herbicidal rating", "setting": "[3]; rate 0.0313 kg/ha", "result": 9.0},
      {"measurement": "CHEAL preemergence herbicidal rating", "setting": "[3]; rate 0.0625 kg/ha", "result": 9.0},
      {"measurement": "CHEAL preemergence herbicidal rating", "setting": "[3]; rate 0.1250 kg/ha", "result": 9.0},
      {"measurement": "CHEAL preemergence herbicidal rating", "setting": "[3]; rate 0.2500 kg/ha", "result": 9.0},
      {"measurement": "CHEAL preemergence herbicidal rating", "setting": "[3]; rate 0.5000 kg/ha", "result": 9.0},
      {"measurement": "IPOSS preemergence herbicidal rating", "setting": "[4]; rate 0.0313 kg/ha", "result": 1.0},
      {"measurement": "IPOSS preemergence herbicidal rating", "setting": "[4]; rate 0.0625 kg/ha", "result": 6.0},
      {"measurement": "IPOSS preemergence herbicidal rating", "setting": "[4]; rate 0.1250 kg/ha", "result": 7.0},
      {"measurement": "IPOSS preemergence herbicidal rating", "setting": "[4]; rate 0.2500 kg/ha", "result": 6.0},
      {"measurement": "IPOSS preemergence herbicidal rating", "setting": "[4]; rate 0.5000 kg/ha", "result": 8.0},
      {"measurement": "IPOSS herbicidal rating", "setting": "[5]; rate 0.0157 kg/ha", "result": 6.0},
      {"measurement": "IPOSS herbicidal rating", "setting": "[5]; rate 0.0313 kg/ha", "result": 9.0},
      {"measurement": "IPOSS herbicidal rating", "setting": "[5]; rate 0.0625 kg/ha", "result": 9.0},
      {"measurement": "IPOSS herbicidal rating", "setting": "[5]; rate 0.1250 kg/ha", "result": 9.0},
      {"measurement": "IPOSS herbicidal rating", "setting": "[5]; rate 0.2500 kg/ha", "result": 9.0},
      {"measurement": "IPOSS herbicidal rating", "setting": "[5]; rate 0.5000 kg/ha", "result": 9.0},
      {"measurement": "TRZAWR herbicidal rating", "setting": "[6]; rate 0.0157 kg/ha", "result": 2.5},
      {"measurement": "TRZAWR herbicidal rating", "setting": "[6]; rate 0.0313 kg/ha", "result": 3.5},
      {"measurement": "TRZAWR herbicidal rating", "setting": "[6]; rate 0.0625 kg/ha", "result": 4.0},
      {"measurement": "TRZAWR herbicidal rating", "setting": "[6]; rate 0.1250 kg/ha", "result": 5.0},
      {"measurement": "TRZAWR herbicidal rating", "setting": "[6]; rate 0.2500 kg/ha", "result": 5.5},
      {"measurement": "TRZAWR herbicidal rating", "setting": "[6]; rate 0.5000 kg/ha", "result": 6.0},
      {"measurement": "Herbicidal rating MOOVA", "setting": "[7]; rate 0.0313 kg/ha", "result": 4.0},
      {"measurement": "Herbicidal rating MOOVA", "setting": "[7]; rate 0.0625 kg/ha", "result": 4.5},
      {"measurement": "Herbicidal rating MOOVA", "setting": "[7]; rate 0.1250 kg/ha", "result": 4.5},
      {"measurement": "Herbicidal rating MOOVA", "setting": "[7]; rate 0.2500 kg/ha", "result": 5.0},
      {"measurement": "Herbicidal rating MOOVA", "setting": "[7]; rate 0.5000 kg/ha", "result": 5.5},
      {"measurement": "GALAP herbicidal rating", "setting": "[8]; rate 0.0157 kg/ha", "result": 4.0},
      {"measurement": "GALAP herbicidal rating", "setting": "[8]; rate 0.0313 kg/ha", "result": 6.0},
      {"measurement": "GALAP herbicidal rating", "setting": "[8]; rate 0.0625 kg/ha", "result": 6.0},
      {"measurement": "GALAP herbicidal rating", "setting": "[8]; rate 0.1250 kg/ha", "result": 8.0},
      {"measurement": "GALAP herbicidal rating", "setting": "[8]; rate 0.2500 kg/ha", "result": 9.0},
      {"measurement": "GALAP herbicidal rating", "setting": "[8]; rate 0.5000 kg/ha", "result": 9.0}
    ]}
  ]
}
